From US10118930B2, “Piperidinylpyrazolopyrimidinones and their use” (BAYER PHARMA AKTIENGESELLSCHAFT, priority 2015, dated 2018)
Counter-ions that a name gives are not always drawn.

These compounds were tested on clot lysis (fibrinolysis) in diluted human citrated plasma, tPA-induced (assay: Plasma-based clot lysis assay (5%)). Settings: human citrated platelet-poor plasma 5%, fibrinogen 3 μM, CaCl2 10 mM, tPA 0.2 nM, 37° C., OD at 405 nm.
Format: biochemical
In short: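 Compounds added to 5% platelet-poor citrated human plasma with 3 μM fibrinogen in 20 mM HEPES, 150 mM NaCl, 0.01% Brij, pH 7. Clotting and lysis started with 10 mM CaCl2 and 0.2 nM tPA at 37° C. IC50 derived by comparing time courses with a blank control reaction.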
Compound `O=c1cc(C2CCNCC2)n2ncc(-c3nc(-c4cccc(Cl)n4)no3)c2[nH]1` [Example 133, 3-[3-(6-Chloropyridin-2-yl)-1,2,4-oxadiazol-5-yl]-7-(piperidin-4-yl)pyrazolo[1,5-a]pyrimidin-5(4H)-one hydrochloride] has an IC50 of 39 nM. `CC1CCCN(C(=O)c2cnn3c(C4CCNCC4)cc(=O)[nH]c23)C1C` (centres unmarked) [Example 104, 3-[(2,3-dimethylpiperidin-1-yl)carbonyl]-7-(piperidin-4-yl)pyrazolo[1,5-a]pyrimidin-5(4H)-one hydrochloride] showed an IC50 of 31 nM. `CC1(c2nc(-c3cnn4c(C5CCNCC5)cc(=O)[nH]c34)no2)CCCC1` (racemic) [Example 386, Rac-3-[5-(1-Methylcyclopentyl)-1,2,4-oxadiazol-3-yl]-7-(piperidin-4-yl)pyrazolo[1,5-a]pyrimidin-5(4H)-one hydrochloride] showed an IC50 of 28 nM. With `COc1ccc(C2(c3nnc(-c4cnn5c(C6CCNCC6)cc(=O)[nH]c45)o3)CC2)cc1` [Example 305, 3-{5-[1-(4-methoxyphenyl)cyclopropyl]-1,3,4-oxadiazol-2-yl}-7-(piperidin-4-yl)pyrazolo[1,5-a]pyrimidin-5(4H)-one hydrochloride] the IC50 was 20 nM. Compound `Cc1nn2c(C3CCNCC3)cc(=O)[nH]c2c1C(=O)N1CCCCC1` [Example 399, 2-methyl-7-(piperidin-4-yl)-3-(piperidin-1-ylcarbonyl) pyrazolo[1,5-a] pyrimidin-5(4H)-one hydrochloride] has an IC50 of 42 nM. `CCCCCCc1nc(-c2cnn3c(C4CCNCC4)cc(=O)[nH]c23)no1` [Example 379, 3-(5-Hexyl-1,2,4-oxadiazol-3-yl)-7-(piperidin-4-yl)pyrazolo[1,5-a]pyrimidin-5(4H)-one hydrochloride] showed an IC50 of 22 nM. For `O=c1cc(C2CCNCC2)n2nc(-c3cccs3)cc2[nH]1` [Example 25, 7-(Piperidin-4-yl)-2-(2-thienyl)pyrazolo[1,5-a]pyrimidin-5(4H)-one hydrochloride], the IC50 was 160 nM. `COc1c(F)cc(Cc2nnc(-c3cnn4c(C5CCNCC5)cc(=O)[nH]c34)o2)cc1F` [Example 444, 3-[5-(3,5-difluoro-4-methoxybenzyl)-1,3,4-oxadiazol-2-yl]-7-(piperidin-4-yl)pyrazolo[1,5-a]pyrimidin-5(4H)-one hydrochloride] gave an IC50 of 17 nM. `NC(=O)c1cnn2c(C3CCNCC3)cc(=O)[nH]c12` [Example 14, 5-Oxo-7-(piperidin-4-yl)-4,5-dihydropyrazolo[1,5-a]pyrimidine-3-carboxamide hydrochloride] showed an IC50 of 24 nM. `O=C(OCC(F)F)c1cnn2c(C3CCNCC3)cc(=O)[nH]c12` [Example 353, 2,2-difluoroethyl 5-oxo-7-(piperidin-4-yl)-4,5-dihydropyrazolo[1,5-a]pyrimidine-3-carboxylate hydrochloride] showed an IC50 of 28 nM. `O=c1cc(C2CCNCC2)n2ncc(-c3nnc(C4CC4)o3)c2[nH]1` [Example 174, 3-(5-cyclopropyl-1,3,4-oxadiazol-2-yl)-7-(piperidin-4-yl)pyrazolo[1,5-a]pyrimidin-5 (4H)-one hydrochloride] showed an IC50 of 34 nM. `Cc1nn2c(C3CCNCC3)cc(=O)[nH]c2c1C(=O)N(C)CC1CC1` [Example 425, N-(cyclopropyl-methyl)-N,2-dimethyl-5-oxo-7-(piperidin-4-yl)-4,5-dihydro-pyrazolo[1,5-a] pyrimidine-3-carboxamide hydrochloride] showed an IC50 of 37 nM. `CCc1noc(-c2c(C)nn3c(C4CCNCC4)cc(=O)[nH]c23)n1` [Example 300, 3-(3-ethyl-1,2,4-oxadiazol-5-yl)-2-methyl-7-(piperidin-4-yl)pyrazolo[1,5-a]pyrimidin-5(4H)-one hydrochloride] showed an IC50 of 16 nM. `Cc1nn2c(C3CCNCC3)cc(=O)[nH]c2c1-c1nc(CCOC(C)(C)C)no1` [Example 302, 3-[3-(2-tert-butoxyethyl)-1,2,4-oxadiazol-5-yl]-2-methyl-7-(piperidin-4-yl)pyrazolo[1,5-a]pyrimidin-5(4H)-one hydrochloride] was tested, and the IC50 was 6 nM. `O=c1cc(C2CCNCC2)n2ncc(CN3CCS(=O)(=O)CC3)c2[nH]1` [Example 345, 3-[(1,1-dioxidothiomorpholin-4-yl)methyl]-7-(piperidin-4-yl)pyrazolo[1,5-a]pyrimidin-5 (4H)-one hydrochloride] was tested, and the IC50 was 120 nM. `N#Cc1cnn2c(C3CCNCC3)cc(=O)[nH]c12` [Example 15, 5-Oxo-7-(piperidin-4-yl)-4,5-dihydropyrazolo[1,5-a]pyrimidine-3-carbonitrile] showed an IC50 of 19 nM. `CC(C)CNC(=O)c1cnn2c(C3CCNCC3)cc(=O)[nH]c12` [Example 21, N-Isobutyl-5-oxo-7-(piperidin-4-yl)-4,5-dihydropyrazolo[1,5-a]pyrimidine-3-carboxamide hydrochloride] showed an IC50 of 14 nM. `Nc1cccc(-c2noc(-c3cnn4c(C5CCNCC5)cc(=O)[nH]c34)n2)c1` [Example 208, 3-[3-(3-aminophenyl)-1,2,4-oxadiazol-5-yl]-7-(piperidin-4-yl)pyrazolo[1,5-a]pyrimidin-5 (4H)-one hydrochloride] gave an IC50 of 55 nM. Compound `CC(C)=Cc1nc(-c2cnn3c(C4CCNCC4)cc(=O)[nH]c23)no1` [Example 383, 3-[5-(2-Methylprop-1-en-1-yl)-1,2,4-oxadiazol-3-yl]-7-(piperidin-4-yl)pyrazolo[1,5-a]pyrimidin-5 (4H)-one hydrochloride] has an IC50 of 15 nM. `Cc1nn2c(C3CCNCC3)cc(=O)[nH]c2c1C(=O)N1CC(C)CC(C)C1` (centres unmarked) [Example 421, 3-[(3,5-dimethyl-piperidin-1-yl)carbonyl]-2-methyl-7-(piperidin-4-yl) pyrazolo[1,5-a] pyrimidin-5(4H)-one hydrochloride] showed an IC50 of 30 nM. `O=C(c1c(-c2ccccc2)nn2c(C3CCNCC3)cc(=O)[nH]c12)N1CCOCC1` [Example 43, 3-(Morpholin-4-ylcarbonyl)-2-phenyl-7-(piperidin-4-yl)pyrazolo[1,5-a]pyrimidin-5(4H)-one trifluoroacetate] was tested, and the IC50 was 27 nM. With `CCCCc1nnc(-c2cnn3c(C4CCNCC4)cc(=O)[nH]c23)o1` [Example 295, 3-(5-butyl-1,3,4-oxadiazol-2-yl)-7-(piperidin-4-yl)pyrazolo[1,5-a]pyrimidin-5(4H)-one hydrochloride] the IC50 was 35 nM. `Cc1c(Cl)cccc1-c1noc(-c2cnn3c(C4CCNCC4)cc(=O)[nH]c23)n1` [Example 140, 3-[3-(3-Chloro-2-methylphenyl)-1,2,4-oxadiazol-5-yl]-7-(piperidin-4-yl)pyrazolo[1,5-a]pyrimidin-5(4H)-one hydrochloride] gave an IC50 of 130 nM. `COc1ccc(Cc2nnc(-c3cnn4c(C5CCNCC5)cc(=O)[nH]c34)o2)cc1F` [Example 447, 3-[5-(3-fluoro-4-methoxybenzyl)-1,3,4-oxadiazol-2-yl]-7-(piperidin-4-yl)pyrazolo[1,5-a]pyrimidin-5(4H)-one hydrochloride] was tested, and the IC50 was 14 nM. In the case of `CC(C)(C)c1nnc(-c2cnn3c(C4CCNCC4)cc(=O)[nH]c23)o1` [Example 165, 3-(5-tert-butyl-1,3,4-oxadiazol-2-yl)-7-(piperidin-4-yl)pyrazolo[1,5-a]pyrimidin-5 (4H)-one hydrochloride], the IC50 is reported as 34 nM. `N#Cc1ccc(-c2nnc(-c3cnn4c(C5CCNCC5)cc(=O)[nH]c34)o2)cc1` [Example 167, 4-{5-[5-oxo-7-(piperidin-4-yl)-4,5-dihydropyrazolo[1,5-a]pyrimidin-3-yl]-1,3,4-oxadiazol-2-yl}benzonitrile hydrochloride] was tested, and the IC50 was 34 nM. `Cc1ccccc1CNC(=O)c1cnn2c(C3CCNCC3)cc(=O)[nH]c12` [Example 86, N-(2-methylbenzyl)-5-oxo-7-(piperidin-4-yl)-4,5-dihydropyrazolo[1,5-a]pyrimidine-3-carboxamide hydrochloride] showed an IC50 of 17 nM. Work on `CC1(C)CN(Cc2cnn3c(C4CCNCC4)cc(=O)[nH]c23)CCO1` [Example 330, 3-[(2,2-dimethylmorpholin-4-yl)methyl]-7-(piperidin-4-yl)pyrazolo[1,5-a]pyrimidin-5(4H)-one hydrochloride] yielded an IC50 of 110 nM. `COc1ccc(OC)c(-c2cnn3c(C4CCNCC4)cc(=O)[nH]c23)c1` [Example 62, 3-(2,5-Dimethoxyphenyl)-7-(piperidin-4-yl)pyrazolo[1,5-a]pyrimidin-5(4H)-one hydrochloride] was tested, and the IC50 was 34 nM. `Cc1ccc(-c2noc(-c3cnn4c(C5CCNCC5)cc(=O)[nH]c34)n2)cc1` [Example 39, 3-[3-(4-Methylphenyl)-1,2,4-oxadiazol-5-yl]-7-(piperidin-4-yl)pyrazolo[1,5-a]pyrimidin-5 (4H)-hydrochloride] gave an IC50 of 27 nM. In the case of `N#Cc1c(Br)nn2c(C3CCNCC3)cc(=O)[nH]c12` [Example 374, 2-bromo-5-oxo-7-(piperidin-4-yl)-4,5-dihydropyrazolo[1,5-a]pyrimidine-3-carbonitrile hydrochloride], the IC50 is reported as 34 nM. For `O=C1CCN(C(=O)c2cnn3c(C4CCNCC4)cc(=O)[nH]c23)CCN1` [Example 100, 3-[(5-oxo-1,4-diazepan-1-yl)carbonyl]-7-(piperidin-4-yl)pyrazolo[1,5-a]pyrimidin-5(4H)-one hydrochloride], the IC50 was 110 nM. For `Cc1ccccc1N(C)C(=O)c1c(C)nn2c(C3CCNCC3)cc(=O)[nH]c12` [Example 431, N,2-dimethyl-N-(2-methyl-phenyl)-5-oxo-7-(piperidin-4-yl)-4,5-dihydro-pyrazolo[1,5-a] pyrimidine-3-carboxamide hydrochloride], the IC50 was 28 nM. Work on `CCN(C(=O)c1c(C)nn2c(C3CCNCC3)cc(=O)[nH]c12)C1CC1` [Example 400, N-cyclopropyl-N-ethyl-2-methyl-5-oxo-7-(piperidin-4-yl)-4,5-dihydro-pyrazolo[1,5-a] pyrimidine-3-carboxamide hydrochloride] yielded an IC50 of 32 nM. For `O=c1cc(C2CCNCC2)n2ncc(-c3noc(-c4cccc(C(F)(F)F)c4)n3)c2[nH]1` [Example 227, 7-(piperidin-4-yl)-3-{5-[3-(trifluoromethyl)phenyl]-1,2,4-oxadiazol-3-yl}pyrazolo[1,5-a]pyrimidin-5(4H)-one hydrochloride], the IC50 was 34 nM.
